Reference: PubChem BioAssay AID1963825 (Molecular Pharmacology Branch, DTP, NCI, 2024)

Experiment: Anticancer human tumor 997537-175-T-J1-PDC patient-derived colon adenocarcinoma cell line growth inhibition [POLQ]
Settings: 997537-175-T-J1-PDC complex spheroid viability, combination with POLQ inhibitors; for IC50: curve of first compound; for viability, T/C: stronger effect = lower value; active means viability on the fitted dose curve at most 10% of control; inactive means the rest
Method in brief: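 Complex spheroid viability model combining PDC tumour cells with endothelial (HUVEC) and MSC stromal cells. Novobiocin, ART-558 or RP6685 were tested singly and in combination with standard and investigational anticancer drugs. Each was titrated in half-log steps from near clinical Cmax, or from 10 microM where Cmax was unknown.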

[1] = second compound 0.0316 µM, first compound 0.0316 µM
[2] = second compound 0.0316 µM, first compound 0.1 µM
[3] = second compound 0.0316 µM, first compound 0.316 µM
[4] = second compound 0.0316 µM, first compound 1 µM
[5] = second compound 0.0316 µM, first compound 3.16 µM
[6] = second compound 0.0316 µM, first compound 10 µM
[7] = second compound 0.1 µM, first compound 0.0316 µM
[8] = second compound 0.1 µM, first compound 0.1 µM
[9] = second compound 0.1 µM, first compound 0.316 µM
[10] = second compound 0.1 µM, first compound 1 µM
[11] = second compound 0.1 µM, first compound 3.16 µM
[12] = second compound 0.1 µM, first compound 10 µM
[13] = second compound 0.316 µM, first compound 0.0316 µM
[14] = second compound 0.316 µM, first compound 0.1 µM
[15] = second compound 0.316 µM, first compound 0.316 µM
[16] = second compound 0.316 µM, first compound 1 µM
[17] = second compound 0.316 µM, first compound 3.16 µM
[18] = second compound 0.316 µM, first compound 10 µM
[19] = second compound 1 µM, first compound 0.0316 µM
[20] = second compound 1 µM, first compound 0.1 µM
[21] = second compound 1 µM, first compound 0.316 µM
[22] = second compound 1 µM, first compound 1 µM
[23] = second compound 1 µM, first compound 3.16 µM
[24] = second compound 1 µM, first compound 10 µM
[25] = second compound 3.16 µM, first compound 0.0316 µM
[26] = second compound 3.16 µM, first compound 0.1 µM
[27] = second compound 3.16 µM, first compound 0.316 µM
[28] = second compound 3.16 µM, first compound 1 µM
[29] = second compound 3.16 µM, first compound 3.16 µM
[30] = second compound 3.16 µM, first compound 10 µM
[31] = second compound 10 µM, first compound 0.0316 µM
[32] = second compound 10 µM, first compound 0.1 µM
[33] = second compound 10 µM, first compound 0.316 µM
[34] = second compound 10 µM, first compound 1 µM
[35] = second compound 10 µM, first compound 3.16 µM
[36] = second compound 10 µM, first compound 10 µM
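Further: luminescence signal used as a surrogate for viable cells; spheroids exposed to drugs for seven days before readout.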

CC1COCCN1c1cc(-c2ccnn2C)c2ccnc(-c3ccn[nH]3)c2n1 (stereo unspecified) + Cc1cccc(N(C)C(=O)C2C(O)CCN2c2nc(C)cc(C(F)(F)F)c2C#N)c1
1.48 µM: IC50 (second compound 0.316 µM)
inactive: viability, T/C [1] 88.5% | viability, T/C [2] 86.1% | viability, T/C [3] 71.5% | viability, T/C [4] 43.5% | viability, T/C [5] 45.5% | viability, T/C [6] 63.2% | viability, T/C [7] 87.9% | viability, T/C [8] 87% | viability, T/C [9] 73.4% | viability, T/C [10] 53.4% | viability, T/C [11] 53.2% | viability, T/C [12] 54.7% | viability, T/C [13] 94.2% | viability, T/C [14] 93.5% | viability, T/C [15] 74% | viability, T/C [16] 50.5% | viability, T/C [17] 52.4% | viability, T/C [18] 45.3% | viability, T/C [19] 96.6% | viability, T/C [20] 84.9% | viability, T/C [21] 48.8% | viability, T/C [22] 47.1% | viability, T/C [23] 61.4% | viability, T/C [24] 65.2% | viability, T/C [25] 107% | viability, T/C [26] 80.8% | viability, T/C [27] 53.7% | viability, T/C [28] 30.5% | viability, T/C [29] 67.1% | viability, T/C [30] 48.6% | viability, T/C [31] 72.1% | viability, T/C [32] 80.7% | viability, T/C [33] 54.8% | viability, T/C [34] 42% | viability, T/C [35] 68.9% | viability, T/C [36] 50.1%
0.761 µM: IC50 (second compound 3.16 µM)
> 10 µM: IC50 (second compound 0.0316 µM) | IC50 (second compound 0.1 µM) | IC50 (second compound 1 µM) | IC50 (second compound 10 µM)

COc1cc(C2c3cc4c(cc3C(OC3OC5COC(C)OC5C(O)C3O)C3COC(=O)C23)OCO4)cc(OC)c1O (stereo unspecified) + Cc1cccc(N(C)C(=O)C2C(O)CCN2c2nc(C)cc(C(F)(F)F)c2C#N)c1
> 10 µM: IC50 (second compound 0.0316 µM) | IC50 (second compound 0.1 µM) | IC50 (second compound 0.316 µM) | IC50 (second compound 1 µM) | IC50 (second compound 3.16 µM) | IC50 (second compound 10 µM)
inactive: viability, T/C [1] 100% | viability, T/C [2] 99.4% | viability, T/C [3] 95.5% | viability, T/C [4] 97.7% | viability, T/C [5] 75.2% | viability, T/C [6] 68.9% | viability, T/C [7] 96.3% | viability, T/C [8] 109% | viability, T/C [9] 94.6% | viability, T/C [10] 102% | viability, T/C [11] 75.1% | viability, T/C [12] 61.9% | viability, T/C [13] 99.8% | viability, T/C [14] 102% | viability, T/C [15] 96.3% | viability, T/C [16] 97.2% | viability, T/C [17] 85% | viability, T/C [18] 52.8% | viability, T/C [19] 103% | viability, T/C [20] 105% | viability, T/C [21] 104% | viability, T/C [22] 110% | viability, T/C [23] 82% | viability, T/C [24] 51.2% | viability, T/C [25] 89.5% | viability, T/C [26] 86.2% | viability, T/C [27] 102% | viability, T/C [28] 93.3% | viability, T/C [29] 77.3% | viability, T/C [30] 69.4% | viability, T/C [31] 112% | viability, T/C [32] 91.3% | viability, T/C [33] 106% | viability, T/C [34] 91.9% | viability, T/C [35] 76.3% | viability, T/C [36] 64.6%

O=c1[nH]cc(F)c(=O)[nH]1 + Cc1cccc(N(C)C(=O)C2C(O)CCN2c2nc(C)cc(C(F)(F)F)c2C#N)c1
> 10 µM: IC50 (second compound 0.0316 µM) | IC50 (second compound 0.1 µM) | IC50 (second compound 0.316 µM) | IC50 (second compound 1 µM) | IC50 (second compound 3.16 µM) | IC50 (second compound 10 µM)
inactive: viability, T/C [1] 84.2% | viability, T/C [2] 109% | viability, T/C [3] 95.8% | viability, T/C [4] 96.7% | viability, T/C [5] 94.6% | viability, T/C [6] 79.7% | viability, T/C [7] 95.8% | viability, T/C [8] 87.7% | viability, T/C [9] 103% | viability, T/C [10] 108% | viability, T/C [11] 103% | viability, T/C [12] 98.4% | viability, T/C [13] 95% | viability, T/C [14] 96% | viability, T/C [15] 112% | viability, T/C [16] 98.4% | viability, T/C [17] 94.9% | viability, T/C [18] 83.3% | viability, T/C [19] 104% | viability, T/C [20] 82.8% | viability, T/C [21] 94.7% | viability, T/C [22] 87.5% | viability, T/C [23] 87.3% | viability, T/C [24] 91.5% | viability, T/C [25] 95% | viability, T/C [26] 99% | viability, T/C [27] 98.8% | viability, T/C [28] 87.8% | viability, T/C [29] 95.3% | viability, T/C [30] 79.6% | viability, T/C [31] 93.1% | viability, T/C [32] 96.4% | viability, T/C [33] 103% | viability, T/C [34] 95.1% | viability, T/C [35] 89.8% | viability, T/C [36] 71.8%
